This is an account of results in patent US10219516B2, “Molecules having pesticidal utility, and intermediates, compositions, and processes, related thereto” (priority 2015, dated 2019).

What all share (assay type): in vivo
The subject of test [1] is Cabbage Looper (Trichoplusia ni, TRIPNI). The test can be described thus: Bioassay on Cabbage Looper (CL), 128-well diet tray assay. Particulars: Trichoplusia ni. In outline: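 Second-instar larvae, one to five per well, were placed on artificial diet surface-treated with 50 μg/cm^2 test molecule applied in 90:10 acetone-water and dried, eight wells per molecule. Trays were covered, vented and held at 25° C., 14:10 light-dark for five to seven days; percent mortality per well was averaged.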

Test [2] concerns Beet Armyworm (Spodoptera exigua, LAPHEG). The test can be described thus: Bioassay on Beet Armyworm (BAW), 128-well diet tray assay. In outline: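 Artificial diet surface-treated with 50 μg/cm^2 test molecule in 90:10 acetone-water, dried, then infested with one to five second instar larvae per well. Held covered and vented at 25° C., 14:10 light-dark for five to seven days; percent mortality recorded per well and averaged over eight wells.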

Test [3] concerns Yellow Fever Mosquito (Aedes aegypti, AEDSAE). The test can be described thus: Bioassay on Yellow Fever Mosquito (YFM), 96-well plate larval assay. Particulars: for YFM rating: Yellow Fever Mosquito, 96-well plate larval assay; for YFM (Biological Results, rating): Species YFM (Yellow Fever Mosquito). In outline:
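Each well was scored for mortality after 3 days at room temperature under a non-evaporative lid. Test molecules came from DMSO masters (4000 ppm stock) diluted with water/acetone 90:10 and dispensed into six replicate plates, which were then infested with roughly 1-day-old larvae in liver-powder water.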

The mark [4] stands for this setting: Cabbage Looper, 128-well diet tray assay, read-out: CL rating.
Where [5] appears, read: Beet Armyworm, 128-well diet tray assay, read-out: BAW rating.
Setting [6] is: Species CL (Cabbage Looper), read-out: CL (Biological Results, rating).
[7] abbreviates: Species BAW (Beet Armyworm), read-out: BAW (Biological Results, rating).

Like-named read-outs stand apart in the source and are kept apart here.

In the case of `Cl.Nc1ccc(NC(=O)c2cc(NC(=O)[C@H]3[C@H](c4cc(Cl)cc(Cl)c4)C3(Cl)Cl)ccc2Cl)cc1` (relative stereo) [PF21, trans-N-(4-aminophenyl)-2-chloro-5-(2,2-dichloro-3-(3,5-dichlorophenyl)cyclopropane-1-carboxamido)benzamide hydrochloride], the pest or weed control at 50 µg/cm2 in test [1] (setting [4]) and in test [2] (setting [5]) was 50 to 100% throughout. For the same compound, the YFM rating result in test [3] is recorded as “A (80-100)”.
In the case of `Cc1cc(N)ccc1NC(=O)c1cc(NC(=O)[C@H]2[C@H](c3cc(Cl)c(Cl)c(Cl)c3)C2(Cl)Cl)ccc1Cl` [F286, N-(4-Amino-2-methylphenyl)-2-chloro-5-((1R,3R)-2,2-dichloro-3-(3,4,5-trichlorophenyl)cyclopropane-1-carboxamido)benzamide], the pest or weed control at 50 µg/cm2 in test [1] (setting [6]) and in test [2] (setting [7]) was 50 to 100% in each case. Further, in test [3], the “YFM (Biological Results, rating)” value is “A (80-100)”.
Regarding `CN(C(=O)c1cc(NC(=O)[C@H]2[C@H](c3ccc(C(F)(F)F)cc3)C2(Cl)Cl)ccc1Cl)c1ccc(F)cc1` (relative stereo) [F82, trans-2-Chloro-5-(2,2-dichloro-3-(4-(trifluoromethyl)phenyl)cyclopropane-1-carboxamido)-N-(4-fluorophenyl)-N-methylbenzamide], the pest or weed control at 50 µg/cm2 in test [1] (setting [6]) and in test [2] (setting [7]) was 50 to 100% throughout. Moreover, the “YFM (Biological Results, rating)” value in test [3] is listed as “B (More than 0-Less than 80)”.
In the case of `Nc1cccc(NC(=O)c2cc(NC(=O)[C@H]3[C@H](c4cc(Cl)cc(Cl)c4)C3(Cl)Cl)ccc2Cl)c1` (relative stereo) [F201, trans-N-(3-Aminophenyl)-2-chloro-5-(2,2-dichloro-3-(3,5-dichlorophenyl)cyclopropane-1-carboxamido)benzamide], the pest or weed control at 50 µg/cm2 in test [1] (setting [6]) and in test [2] (setting [7]) was 50 to 100% in each case. Besides, in test [3], the “YFM (Biological Results, rating)” value is listed as “A (80-100)”.
As to `O=C(Nc1ccc(F)cc1F)c1cc(NC(=O)[C@H]2[C@H](c3ccc(Cl)c(C(F)F)c3)C2(Cl)Cl)ccc1Cl` (relative stereo) [F559, 2-Chloro-5-(trans-2,2-dichloro-3-(4-chloro-3-(difluoromethyl)phenyl)cyclopropane-1-carboxamido)-N-(2,4-difluorophenyl)benzamide], the pest or weed control at 50 µg/cm2 in test [1] (setting [4]) and in test [2] (setting [5]) was 50 to 100% in each case. In addition, in test [3], the YFM rating result is “A (80-100)”.
For the compound `O=C(Nc1ccc(F)cc1F)c1cc(NC(=O)[C@H]2[C@H](c3ccc(C(F)F)c(F)c3)C2(Cl)Cl)ccc1Cl` (relative stereo) [F563, 2-Chloro-5-(trans-2,2-dichloro-3-(4-(difluoromethyl)-3-fluorophenyl)cyclopropane-1-carboxamido)-N-(2,4-difluorophenyl)benzamide], the pest or weed control at 50 µg/cm2 in test [1] (setting [4]) and in test [2] (setting [5]) was 50 to 100% in each case. Also, the YFM rating result in test [3] is listed as “A (80-100)”.
For `Nc1cc(F)cc(NC(=O)c2cc(NC(=O)[C@H]3[C@H](c4cc(Cl)c(Cl)c(Cl)c4)C3(Cl)Cl)ccc2Cl)c1` [F432, N-(3-Amino-5-fluorophenyl)-2-chloro-5-((1R,3R)-2,2-dichloro-3-(3,4,5-trichlorophenyl)cyclopropane-1-carboxamido)benzamide], the pest or weed control at 50 µg/cm2 in test [1] (setting [4]) and in test [2] (setting [5]) was 50 to 100% throughout. In addition, in test [3], the YFM rating entry is “A (80-100)”.
Consider `N#Cc1cc(F)ccc1NC(=O)c1cc(NC(=O)[C@H]2[C@H](c3cc(Cl)cc(Cl)c3)C2(Cl)Cl)ccc1Cl` [F535, 2-Chloro-N-(2-cyano-4-fluorophenyl)-5-((1R,3R)-2,2-dichloro-3-(3,5-dichlorophenyl)cyclopropane-1-carboxamido)benzamide], for which the pest or weed control at 50 µg/cm2 in test [1] (setting [4]) and in test [2] (setting [5]) was 50 to 100% in each case. For the same compound, the YFM rating result in test [3] is on record as “A (80-100)”.
